According to ChEMBL document CHEMBL4725252, “Development of an efficient semisynthetic modification of FR901459 via a novel regioselective N, O-acyl migration” (Bioorg Med Chem Lett, 2020):
Values after ≈ are worked out from the molar mass of the structure shown. Square brackets hold non-standard residues; d marks the D form. Peptide text beside a SMILES is read from it. MeBmt = C/C=C/C[C@@H](C)[C@@H](O)[C@H](NC)C(=O)O; NMeL = CN[C@@H](CC(C)C)C(=O)O; NMeV = CN[C@H](C(=O)O)C(C)C; Sar = CNCC(=O)O

Assays:
[1] = system: Hepatitis C virus; test: Antiviral activity against HCV subgenomic replicon assessed as inhibition of replication by qRT-PCR analysis; format: functional, organism-based, Hepacivirus hominis
[2] = system: Hepatitis C virus; test: Ratio of EC50 for FR901459 to EC50 for test compound for antiviral activity against HCV subgenomic replicon assessed as inhibition of replication by qRT-PCR analysis; format: functional, Hepacivirus hominis

Row | EC50 [1] [µg/mL] | SMILES | Ratio EC50 [2]
1 | 0.038 (≈ 0.0308 µM) | C/C=C/C[C@@H](C)[C@@H](O)[C@H]1C(=O)N[C@@H]([C@@H](C)O)C(=O)N(C)[C@H](C)C(=O)N(C)[C@@H](CC(C)C)C(=O)N[C@@H](CC(C)C)C(=O)N(C)[C@@H](CC(C)C)C(=O)N[C@@H](C)C(=O)N[C@H](C)C(=O)N(C)[C@@H](CC(C)C)C(=O)N[C@@H](CC(C)C)C(=O)N(C)[C@@H](C(C)C)C(=O)N1C | 2.5
2 | 0.096 (≈ 0.0788 µM) | C/C=C/C[C@@H](C)[C@@H](O)[C@H]1C(=O)N[C@@H]([C@@H](C)O)C(=O)N(C)CC(=O)N(C)[C@@H](CC(C)C)C(=O)N[C@@H](CC(C)C)C(=O)N(C)[C@@H](CC(C)C)C(=O)N[C@@H](C)C(=O)N[C@H](C)C(=O)N(C)[C@@H](CC(C)C)C(=O)N[C@@H](CC(C)C)C(=O)N(C)[C@@H](C(C)C)C(=O)N1C (cyclo(A[dA][NMeL]L[NMeV][MeBmt]T[Sar][NMeL]L[NMeL])) | 
